Measured values reported in US11603359B2, “Benzothiadiazepine compounds and their use as bile acid modulators” (Albireo AB, priority 2019, dated 2023).

Assays:
human IBAT = target: T1, human IBAT (Homo sapiens, UniProt Q12908); test: IBAT (h/m) assay, human IBAT-overexpressing cells, 3H-taurocholic acid uptake; assay type: cell-based; settings: 0.25 μM 3H-taurocholic acid + 5 μM cold taurocholic acid, 20 minutes, read-out: hIBAT IC50
T1 construct: expressed in transfected cells; Puromycin-selected IBAT-overexpressing cells
T1 sequence (Q12908 1-348): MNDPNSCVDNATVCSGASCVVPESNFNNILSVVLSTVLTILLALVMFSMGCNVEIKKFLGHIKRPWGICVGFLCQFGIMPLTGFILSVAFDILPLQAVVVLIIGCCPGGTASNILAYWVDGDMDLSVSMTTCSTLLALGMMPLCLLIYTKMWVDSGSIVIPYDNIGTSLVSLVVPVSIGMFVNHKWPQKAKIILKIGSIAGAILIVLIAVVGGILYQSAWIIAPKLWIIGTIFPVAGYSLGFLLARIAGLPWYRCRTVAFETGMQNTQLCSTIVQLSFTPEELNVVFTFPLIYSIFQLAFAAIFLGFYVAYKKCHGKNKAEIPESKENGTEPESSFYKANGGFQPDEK
Procedure: 10,000 cells (Human or Mouse IBAT-overexpressing cells) were seeded in 96-wells plate (Corning CLS3809) in 200 μL MEM-alpha medium (Gibco 12571-063) supplemented with 10% FBS (Gibco 10438026) containing Puromycin (Gibco A1113803) (10 μg/mL) and incubated at 37° C. in 5% CO2 for 48 hours. After incubation, media was decanted from the wells and cells were washed two times with 300 μL of basal MEM-alpha medium (FBS-free). After decanting basal MEM-alpha medium each time, plates were tapped against paper towel to ensure maximum removal of residual media. Test inhibitor dilutions (highest test concentration being 10 μM, 3-fold serial dilution, 10 points) prepared in DMSO (Sigma D2650) were added in incubation mix (maintaining 0.2% final DMSO concentration) containing 0.25 μM 3H-taurocholic acid (ARC ART-1368) and 5 μM of cold taurocholic acid (Sigma T4009). 50 μL of incubation mix containing test inhibitors was then added to the wells (in duplicate) and the plates were incubated for 20 minutes in a CO2 incubator at 37° C. After incubation, the reaction was stopped by keeping the plates on ice water mix for 2-3 minutes and then the incubation mix was aspirated completely from the wells. The wells were washed two times with 250 μL of chilled unlabelled 1 mM taurocholic acid dissolved in HEPES (Gibco 15630080)-buffered (10 mM) HBSS (Gibco 14175079) (pH 7.4). The plates were tapped against a paper towel after every wash to ensure maximum removal of blocking buffer.
100 μL of MicroScint-20 (PerkinElmer 6013621) was added to the wells and kept overnight at room temperature before reading the plates in TopCount NXT™ Microplate Scintillation and Luminescence Counter from PerkinElmer under 3H Test protocol (set at 120 seconds reading time per well).
All test compounds were provided in powder form at room temperature. 10 mM DMSO stocks of the test compounds were prepared, aliquoted and stored at −20° C. From the 10 mM DMSO stock of the compounds, a 3-fold serial dilution in DMSO was prepared to get a total of 10 dilutions of the test compounds. 0.5 μL of this dilution in DMSO was added to 250 μL of FBS-free basal media containing 3H-taurocholic acid and cold taurocholic acid to prepare the incubation mixture.

[1] = Bidirectional permeability assay (Caco-2 cells); assay type: in vitro ADME; settings: human, pH 7.4, Caco-2 monolayers, absorptive direction (A2B), FaSSIF donor buffer
Procedure: Caco-2 cells (Evotec) were seeded at a density of 70,000 cells/well in Millicell® 24-well cell culture insert plates and maintained in an incubator (37° C., 5% CO2, 95% RH) for 21 days with media change on alternate days.
Stock solutions (10 mM) of the test compounds, atenolol (low permeability marker), propranolol (high permeability marker) and digoxin (substrate for P-gp transport pathway) were prepared in dimethylsulfoxide (DMSO). An intermediate stock solution (1 mM) was prepared by diluting 10 μL of 10 mM master stock solution with 90 μL of neat DMSO. A working stock solution (10 μM) was prepared by diluting 50 μL of 1 mM with 4950 μL of FaSSIF buffer. Post addition of compounds to the FaSSIF, samples were subjected to sonication for 2 hours, and centrifuged at 4000 RPM for 30 minutes at 37° C. The 4 mL of resultant supernatant was directly used in the assay. The final DMSO concentration in the transport experiments was 1%.
On the day of assay, Caco-2 monolayers were washed twice with transport buffer (HBSS, pH 7.4) and pre-incubated for 30 min (37° C., 5% CO2, 95% RH) in an incubator. The electrical resistance of the monolayers was measured with a Millicell®—ERS system. Monolayers with trans-epithelial electrical resistance (TEER) values greater than 350 ohm·cm^2 were selected for the assay.
The assay was conducted in absorptive direction (A2B) and secretory (B2A) directions. Transport experiments were initiated by addition of transport assay buffer (FaSSIF buffer prepared in HBSS) consisting of compounds to the donor compartment (apical chamber A-B; basolateral chamber B-A) in duplicate (n=2) wells. Drug free HBSS buffer (pH 7.4) containing 1% bovine serum albumin (BSA) was introduced to the receiver (A-B-basolateral; B-A-Apical) compartments. The volumes of apical and basolateral compartments were 0.4 and 0.8 mL, respectively. After adding dosing solution, plates were incubated in an incubator for 120 minutes at 37° C. After 120 minutes, donor and receiver samples were collected and matrix matched (1:1, 30 μL study sample+30 μL blank buffer) with the opposite buffer. Dosing samples matrix matched (1:1, 30 μL study sample+30 μL blank buffer) with the opposite buffer. Samples were processed by adding acetonitrile containing internal standard (60 μL study sample+200 μL acetonitrile containing internal standard—Tolbutamide, 500 ng/mL). Samples were vortexed and centrifuged at 4000 rpm for 10 minutes. The obtained supernatant (100 μL) was diluted with 100 μL of water and transferred to fresh 96 well plates. The concentration of compounds in the samples was analyzed by liquid chromatography tandem mass spectrometry (LC-MS/MS) method using discovery grade bio-analytical method, as applicable.
The mean apparent permeability (Papp, ×10^−6 cm/sec) of the test compounds, atenolol, propranolol and digoxin were calculated as follows:
[formula] where dq/dt=rate of transport (rate of transport of compound in the receiver compartment), C0=initial concentration in the donor compartment, A=surface area of the effective filter membrane.

SMILES	IC50 (human IBAT)	Papp A→B at 120 min, 10 µM [1]
CCCCC1(CCCC)CN(c2ccccc2)c2cc(SC)c(OCC(O)C(=O)O)cc2S(=O)(=O)N1 (racemic) [Example 5, 3-((3,3-dibutyl-7-(methylthio)-1,1-dioxido-5-phenyl-2,3,4,5-tetrahydro-1,2,5-benzothiadiazepin-8-yl)oxy)-2-hydroxypropanoic acid]	5 nM	1 ×10⁻⁶ cm/s
CCCCC1(CC)CN(c2ccccc2)c2cc(N(C)C)c(OCCC(=O)O)cc2S(=O)(=O)N1 (racemic) [Example 11, 3-((3-Butyl-7-(dimethylamino)-3-ethyl-1,1-dioxido-5-phenyl-2,3,4,5-tetrahydro-1,2,5-benzothiadiazepin-8-yl)oxy)propanoic acid]	3 nM	13.1 ×10⁻⁶ cm/s
CCCCC1(CC)CN(c2ccccc2)c2cc(SC)c(OCCC(=O)O)cc2S(=O)(=O)N1 (single isomer, unassigned) [Example 4, 3-((3-butyl-3-ethyl-7-(methylthio)-1,1-dioxido-5-phenyl-2,3,4,5-tetrahydro-1,2,5-benzothiadiazepin-8-yl)oxy)propanoic acid]	2 nM	7.6 ×10⁻⁶ cm/s
CCCCC1(CCCC)CN(c2ccccc2)c2cc(SC)c(OCC(O)C(=O)O)cc2S(=O)(=O)N1 (single isomer, unassigned) [Example 7, 3-((3,3-dibutyl-7-(methylthio)-1,1-dioxido-5-phenyl-2,3,4,5-tetrahydro-1,2,5-benzothiadiazepin-8-yl)oxy)-2-hydroxypropanoic acid]	2 nM	0.4 ×10⁻⁶ cm/s
CCCCC1(CC)CN(c2ccccc2)c2cc(N(C)C)c(OCCC(=O)O)cc2S(=O)(=O)N1 (single isomer, unassigned) [Example 12, 3-((3-butyl-7-(dimethylamino)-3-ethyl-1,1-dioxido-5-phenyl-2,3,4,5-tetrahydro-1,2,5-benzothiadiazepin-8-yl)oxy)propanoic acid]	3 nM	14.2 ×10⁻⁶ cm/s
CCCCC1(CCCC)CN(c2ccccc2)c2cc(SC)c(OCCC(=O)O)cc2S(=O)(=O)N1 [Example 1, 3-((3,3-Dibutyl-7-(methylthio)-1,1-dioxido-5-phenyl-2,3,4,5-tetrahydro-1,2,5-benzothiadiazepin-8-yl)oxy)propanoic acid]	7 nM	9.2 ×10⁻⁶ cm/s
CCCCC1(CCCC)CN(c2ccccc2)c2cc(SC)c(OC(C)CC(=O)O)cc2S(=O)(=O)N1 (stereo not drawn) [Example 8, 3-((3,3-Dibutyl-7-(methylthio)-1,1-dioxido-5-phenyl-2,3,4,5-tetrahydro-1,2,5-benzothiadiazepin-8-yl)oxy)butanoic acid]	12 nM	9.5 ×10⁻⁶ cm/s
CCCCC1(CCCC)CN(c2ccccc2)c2cc(Cl)c(OCCC(=O)O)cc2S(=O)(=O)N1 [Example 9, 3-((3,3-dibutyl-7-chloro-1,1-dioxido-5-phenyl-2,3,4,5-tetrahydro-1,2,5-benzothiadiazepin-8-yl)oxy)propanoic acid]	21 nM	10 ×10⁻⁶ cm/s
CCCCC1(CCCC)CN(c2ccc(O)cc2)c2cc(SC)c(OCCC(=O)O)cc2S(=O)(=O)N1 [Example 10, 3-((3,3-dibutyl-5-(4-hydroxyphenyl)-7-(methylthio)-1,1-dioxido-2,3,4,5-tetrahydro-1,2,5-benzothiadiazepin-8-yl)oxy)propanoic acid]	2 nM	2.1 ×10⁻⁶ cm/s
